According to patent US20110059886A1, “HCV NS3-NS4A Protease Inhibition” (priority 2004, published 2011):
Where two headings read alike, the source gives them in different places. Non-standard residues stand in square brackets, D forms with d. Residues, ends and D or L forms follow the SMILES beside them. Abu = CC[C@H](N)C(=O)O

Experiments:
[1] = target: T1, HCV NS3 protease genotype 2a (Hepatitis C virus genotype 2a, UniProt P26660, L1043K/T1046A/V1183I); assay: Kinetic parameters of NS5AB substrate, HPLC peptide cleavage assay; type: biochemical
T1 construct: DNA fragment encoding residues Ala^1-Ser^181 of several isolates of genotype 2a or 2b; hexa-histidine (C); made in house; host or cells: E. coli BL21/DE3 pLysS
Protocol: (§1) Peptide sequences are shown below.
(§2) For determination of the kinetic parameters Km and Vmax, the NS5AB substrate was varied between 3 μM and 200 μM. The ratio of the product peak area to the reaction time yielded a rate of enzyme catalyzed hydrolysis. These rate vs. substrate concentration data points were fit to the Michaelis-Menten equation using non-linear regression. The value of kcat was determined from Vmax using the nominal protease concentration and a fully cleaved substrate peptide as an instrument calibration standard.

[2] = target: T2, HCV NS3 protease genotype 3a (Hepatitis C virus genotype 3a, UniProt Q81258, I1084M/L1045K/S1134A/S1198A); assay: as above; type: biochemical
T2 construct: DNA fragment encoding residues Ala^1-Ser^181 of several isolates of genotype 2a or 2b; hexa-histidine (C); made in house; host or cells: E. coli BL21/DE3 pLysS
Protocol: as §1, §2

[3] = target: T1, HCV NS3 protease genotype 2a; assay: HPLC peptide cleavage assay, apparent Ki; type: biochemical; conditions: 15 min preincubation, NS5AB at Km
Text: as §1
(§3) Biophys. Acta. 874, pp. 44-53 (1986)].

[4] = target: T2, HCV NS3 protease genotype 3a; assay: HPLC peptide cleavage assay, apparent Ki; type: biochemical; conditions: 15 min preincubation, NS5AB at Km
Text: as §1, §3

[5] = target: T1, HCV NS3 protease genotype 2a; assay: Fluorescence peptide assay, potency with extended incubation; type: biochemical; conditions: IC50 after extended preincubation taken as Ki of tightly bound complex, read-out: Ki following extended incubation
[6] = target: T2, HCV NS3 protease genotype 3a; assay: as above; type: biochemical; conditions: IC50 after extended preincubation taken as Ki of tightly bound complex, read-out: Ki following extended incubation
[7] = target: T1, HCV NS3 protease genotype 2a; assay: Progress curve analysis of slow binding inhibition; type: biochemical
Text: (§5) F(t)=Vs×t+(Vi−Vs)×(1−exp (−kobs×t))/kobs+C Equation 1:
(§6) kobs=koff+(kon×[I])/(1+[S]/Km) Equation 2:

[8] = target: T2, HCV NS3 protease genotype 3a; assay: Progress curve analysis of slow binding inhibition; type: biochemical
Text: as §5, §6

[9] = target: T1, HCV NS3 protease genotype 2a; assay: Inhibition constant from steady-state rates of progress curves; type: biochemical; conditions: steady-state portion of progress curves, Morrison fit, read-out: Ki using steady-state rates
Protocol: (§4) The rates of onset of slow binding inhibition were determined by a modification of the method for measurement of progress curves described by Narjes et al. [Narjes F. et al., Biochemistry 39, pp. 1849-1861 (2000)]. […] The reaction was initiated by addition of an aliquot of pre-heated enzyme stock to the compound-substrate mixture to yield final concentrations of 6 to 12 μM RET-S1 and 0.5 nM to 4 nM HCV NS3 protease. […] T., Adv. Enzymol. Relat. Areas Mol. Biol. 61, pp. 201-301 (1988)].
as §3

[10] = target: T2, HCV NS3 protease genotype 3a; assay: as above; type: biochemical; conditions: steady-state portion of progress curves, Morrison fit, read-out: Ki using steady-state rates
Protocol: as §4, §3

[11] = tested on: Cells containing hepatitis C virus (HCV) replicon; assay: HCV replicon cell assay; type: cell-based; conditions: 48 h, read-out: (concentration at which 50% inhibition of HCV RNA level is observed)
Protocol: Cells were obtained according to the method of Lohmannn et al., Science, 285, pp. 110-113 (1999). Cells containing hepatitis C virus (HCV) replicon were maintained in DMEM containing 10% fetal bovine serum (FBS), 0.25 mg per ml of G418, with appropriate supplements (media A).
On day 1, replicon cell monolayer was treated with a trypsin:EDTA mixture, removed, and then media A was diluted into a final concentration of 100,000 cells per ml wit. 10,000 cells in 100 ul were plated into each well of a 96-well tissue culture plate, and cultured overnight in a tissue culture incubator at 37° C.
On day 2, compounds (in 100% DMSO) were serially diluted into DMEM containing 2% FBS, 0.5% DMSO, with appropriate supplements (media B). The final concentration of DMSO was maintained at 0.5% throughout the dilution series. […]
A Taqman real-time RT-PCR quantification assay was set up with two sets of specific primers and probe. […] Total RNA extractants from treated HCV replicon cells was added to the PCR reactions for quantification of both HCV and BVDV RNA in the same PCR well. […] The level of HCV RNA in each well was calculated according to a standard curve run in the same PCR plate. The percentage of inhibition or decrease of HCV RNA level due to compound treatment was calculated using the DMSO or no compound control as 0% of inhibition. […]

NS3/4A protease = conditions: WO 02/018369, cited from earlier work
NS3-4A serine protease = NS3-4A serine protease (Hepatitis C virus genotype 1a, UniProt P27958); assay: Enzyme assays with KK-4A peptide and FRET substrate, mode of binding
[12] = tested on: CC[C@H](NC(=O)[C@@H](NC(=O)[C@@H](NC(=O)[C@H](CC(=O)O)NC(=O)[C@@H](N)CCC(=O)O)C(C)C)C(C)C)C(=O)N[C@@H](CS)C(=O)N[C@@H](CO)C(=O)N[C@@H](CCSC)C(=O)N[C@@H](CO)C(=O)N[C@@H](Cc1ccc(O)cc1)C(=O)O; assay: purified protein, by the assay type; conditions: other: genotype 1a; NS5AB substrate; pH 7.8; 40.0 °C
[13] = target: NS5AB peptide substrate, based on the NS5A/NS5B cleavage site for genotype 1a HCV
[14] = target: RET-S1 fluorescent peptide (AnaSpec, San Jose, Calif.)

T2 sequence (Q81258 1033-1213, looked up, stated change not applied, other chains not shown): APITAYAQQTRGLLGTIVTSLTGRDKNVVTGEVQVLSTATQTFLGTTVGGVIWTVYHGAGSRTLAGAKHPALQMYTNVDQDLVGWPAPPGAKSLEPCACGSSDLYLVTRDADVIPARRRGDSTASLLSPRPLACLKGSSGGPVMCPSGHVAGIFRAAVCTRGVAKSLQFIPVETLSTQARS
Sequence of NS3-4A serine protease (P27958 1027-1208, other chains not shown): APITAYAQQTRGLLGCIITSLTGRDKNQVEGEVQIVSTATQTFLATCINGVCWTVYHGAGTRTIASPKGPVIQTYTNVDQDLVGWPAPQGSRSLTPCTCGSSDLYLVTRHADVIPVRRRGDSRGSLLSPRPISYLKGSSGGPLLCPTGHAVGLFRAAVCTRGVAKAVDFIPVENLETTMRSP

## CC[C@H](NC(=O)[C@@H](NC(=O)[C@@H](NC(=O)[C@H](CC(=O)O)NC(=O)[C@@H](N)CCC(=O)O)C(C)C)C(C)C)C(=O)N[C@@H](CS)C(=O)N[C@@H](CO)C(=O)N[C@@H](CCSC)C(=O)N[C@@H](CO)C(=O)N[C@@H](Cc1ccc(O)cc1)C(=O)O [NS5AB, NH2-EDVV-(alpha)Abu-CSMSY-COOH] (H-EDVV[Abu]CSMSY-OH)
[1]
  Km: 11 µM
[2]
  Km: 70 µM

## CCC[C@H](NC(=O)[C@@H]1[C@H]2CCC[C@H]2CN1C(=O)[C@@H](NC(=O)[C@@H](NC(=O)c1cnccn1)C1CCCCC1)C(C)(C)C)C(=O)C(=O)NC1CC1 [VX-950]
[3]
  Ki: 40 nM
[4]
  Ki: 650 nM
[5]
  Ki: 37 nM
[6]
  Ki: 460 nM
[7]
  Ki: 67 nM
[8]
  Ki: 440 nM
[9]
  Ki: 32 nM
[10]
  Ki: 270 nM
[11]
  IC50: 354 nM
NS3/4A protease; read-out: Ki
  Ki: 8 nM
NS3/4A protease; read-out: steady state binding constant (ki*)
  Ki: 3 nM
NS3-4A serine protease
  mode of binding to the NS3-4A serine protease: reversible, covalent, competitive, tight and slow binding

## HCV NS3 protease genotype 1a (Hepatitis C virus (isolate H77))
[12]
  Km: 25 µM
  kcat/Km: 30000 M⁻¹ s⁻¹

## HCV NS3 protease, genotype 1a (enzyme)
[13]
  kcat/Km: 30000 M⁻¹ s⁻¹
[14]
  kcat/Km: 170000 M⁻¹ s⁻¹

## HCV NS3 serine protease domain, genotype 2a consensus sequence (enzyme)
[13]
  kcat/Km: 31000 M⁻¹ s⁻¹
[14]
  kcat/Km: 65000 M⁻¹ s⁻¹

## HCV NS3 serine protease domain, genotype 3a consensus sequence (enzyme)
[13]
  kcat/Km: 5200 M⁻¹ s⁻¹
[14]
  kcat/Km: 22000 M⁻¹ s⁻¹
